Assay results as given in patent US20130296228A1, “EFFLUX PUMP INHIBITORS” (priority 2010, published 2013).
Several values for one entry are separate records, joined by “and”; a condition that tells them apart may be missing. Identical values can stand only once. Like-named read-outs stand apart in the source and are kept apart here. Residues, ends and D or L forms follow the SMILES beside them.

How the values were obtained:
[1] = tested on: MDR clinical isolate of P. aeruginosa 2301; assay: Systemic infection in mice, % survival; type: in vivo; details: Table 7, mice, Oral
P. aeruginosa 2301 [2] = assay: Survival of high density inoculation in MHA medium; type: cell-based; details: high density inoculation 2-5 × 10^9 CFU/ml; 20 mcg/ml in MHA medium
From the text: In a most surprising manner, the combination of ceftazidime and azithromycin and tigecycline respectively brought about more than 7 log reduction in the bacterial count as compared to individual effects in highly resistant Pseudomonas strain. Moreover in a very unusual and surprising manner this tremendous bactericidal effect is taking place at concentrations much below than their individual inhibitory concentrations. […] It is also likely that ceftazidime interacts with outer membrane porins and acts as a porin modulator. Bacalum et al. have shown that ceftazidime binds to outer membrane porins with high affinity (Bacalum et al. Romanian. J. Biophys., 19, 105-116, 2009).

P. aeruginosa 23587 = assay: Diameter of zone of inhibition of antimicrobial agents with or without efflux pump inhibitor; type: cell-based; details: for change of activity in the presence of PAN: clinical isolates P. aeruginosa 23587 and P. aeruginosa 2301; for inhibition of MDR RND efflux pumps, concluded from potentiation: clinical isolates of P. aeruginosa
From the text: Since RND efflux pumps operate by utilizing energy in […], metabolic inhibitor, sodium azide brings about MDR RND pump inhibition by causing energy deprivation.

P. aeruginosa 2301 [3] = assay: as above; type: cell-based; details: for Diameter of zone of inhibition: P. aeruginosa 2301
[4] = Table 1, P. aeruginosa 23587, +PAN (20 μg/ml), 12.5 μg/well
[5] = Table 2, P. aeruginosa (23587), +sodium azide (10 μg/ml), 50 μg/well
[6] = Table 2, P. aeruginosa (23587), +sodium azide (10 μg/ml), 100 μg/well
[7] = Table 2, P. aeruginosa (23587), +sodium azide (10 μg/ml), 200 μg/well
[8] = Table 1, +PAN (20 μg/ml), 12.5 μg/well

CS(=O)(=O)O.C[C@H](N)C(=O)OC1CCN(c2c(F)cc3c(=O)c(C(=O)O)cn4c3c2CC[C@@H]4C)CC1 [2′S,5S-(−)-9-Fluoro-8-(4-alaninyloxy-piperidin-1-yl)-5-methyl-6,7-dihydro-1-oxo-1H,5H-benzo[i,j]quinolizine-2-carboxylic acid methane sulfonic acid salt]
% survival ([1]; 50 mg/kg BID × 1 day): 0% | % survival ([1]; 75 mg/kg BID × 1 day): 16.6% | % survival ([1]; 100 mg/kg BID × 1 day): 16.6%

CC[C@H]1OC(=O)[C@H](C)[C@@H](O[C@H]2C[C@@](C)(OC)[C@@H](O)[C@H](C)O2)[C@H](C)[C@@H](O[C@@H]2O[C@H](C)C[C@H](N(C)C)[C@H]2O)[C@](C)(O)C[C@@H](C)CN(C)[C@H](C)[C@@H](O)[C@]1(C)O [Azithromycin, azithromycin]
CFU/ml at 48 h (P. aeruginosa 2301 [2]): >5 × 10^9 CFU/ml | change of activity in presence of reserpine (P. aeruginosa 23587): no change | change of activity on addition of sodium azide (P. aeruginosa 23587): potentiated | change of activity in the presence of cefepime and ceftazidime (P. aeruginosa 23587; Example 3): significant potentiation | Diameter of zone of inhibition (P. aeruginosa 23587; [4]): 16 m.m. | Diameter of zone of inhibition (P. aeruginosa 23587; Table 1, P. aeruginosa 23587, +PAN (20 μg/ml), 25 μg/well): 23.5 m.m. | Diameter of zone of inhibition (P. aeruginosa 23587; Table 1, P. aeruginosa 23587, +PAN (20 μg/ml), 50 μg/well): 27 m.m. | Diameter of zone of inhibition (P. aeruginosa 23587; Table 1, P. aeruginosa 23587, Control, 25 μg/well): 19H | Diameter of zone of inhibition (P. aeruginosa 23587; Table 1, P. aeruginosa 23587, Control, 50 μg/well): 23H | Diameter of zone of inhibition (P. aeruginosa 23587; Table 2, P. aeruginosa (23587), +Reserpine (25 μg/ml), 50 μg/well): 12H | Diameter of zone of inhibition (P. aeruginosa 23587; Table 2, P. aeruginosa (23587), +Reserpine (25 μg/ml), 100 μg/well): 20H | Diameter of zone of inhibition (P. aeruginosa 23587; Table 2, P. aeruginosa (23587), +Reserpine (25 μg/ml), 200 μg/well): 24H | Diameter of zone of inhibition (P. aeruginosa 23587; [5]): 21H | Diameter of zone of inhibition (P. aeruginosa 23587; [6]): 24H | Diameter of zone of inhibition (P. aeruginosa 23587; [7]): 30 m.m. | Diameter of zone of inhibition (P. aeruginosa 23587; Table 2, P. aeruginosa (23587), Control, 50 μg/well): 12H | Diameter of zone of inhibition (P. aeruginosa 23587; Table 2, P. aeruginosa (23587), Control, 100 μg/well): 20H | Diameter of zone of inhibition (P. aeruginosa 23587; Table 2, P. aeruginosa (23587), Control, 200 μg/well): 24H | Diameter of zone of inhibition (P. aeruginosa 23587; Table 3, P. aeruginosa 23587, +Cefepime (1 μg/ml), 100 μg/Well): 28H | Diameter of zone of inhibition (P. aeruginosa 23587; Table 3, P. aeruginosa 23587, +Cefepime (1 μg/ml), 200 μg/Well): 30H | Diameter of zone of inhibition (P. aeruginosa 23587; Table 3, P. aeruginosa 23587, +Ceftazidime (1 μg/ml), 100 μg/Well): 36 m.m. | Diameter of zone of inhibition (P. aeruginosa 23587; Table 3, P. aeruginosa 23587, +Ceftazidime (1 μg/ml), 200 μg/Well): 42 m.m. | Diameter of zone of inhibition (P. aeruginosa 23587; Table 3, P. aeruginosa 23587, Control, 100 μg/Well): 20H | Diameter of zone of inhibition (P. aeruginosa 23587; Table 3, P. aeruginosa 23587, Control, 200 μg/Well): 24H | change of activity in the presence of PAN (P. aeruginosa 23587): Synergistic enhancement | change of activity in the presence of cefepime and ceftazidime (P. aeruginosa 2301 [3]; Example 6): significant potentiation | Diameter of zone of inhibition (P. aeruginosa 2301 [3]; [8]): 25 m.m. | Diameter of zone of inhibition (P. aeruginosa 2301 [3]; Table 1, +PAN (20 μg/ml), 25 μg/well): 28 m.m. | Diameter of zone of inhibition (P. aeruginosa 2301 [3]; Table 1, +PAN (20 μg/ml), 50 μg/well): 32 m.m. | Diameter of zone of inhibition (P. aeruginosa 2301 [3]; Table 1, Control, 25 μg/well): SLI | Diameter of zone of inhibition (P. aeruginosa 2301 [3]; Table 1, Control, 50 μg/well): 13.5H | Diameter of zone of inhibition (P. aeruginosa 2301 [3]; Table 6, +Cefepime (2 μg/ml), 50 μg/Well): 24H | Diameter of zone of inhibition (P. aeruginosa 2301 [3]; Table 6, +Cefepime (2 μg/ml), 100 μg/Well): 28H | Diameter of zone of inhibition (P. aeruginosa 2301 [3]; Table 6, +Cefepime (2 μg/ml), 200 μg/Well): 30H | Diameter of zone of inhibition (P. aeruginosa 2301 [3]; Table 6, +Ceftazidime (0.5 μg/ml), 50 μg/Well): 32H | Diameter of zone of inhibition (P. aeruginosa 2301 [3]; Table 6, +Ceftazidime (0.5 μg/ml), 100 μg/Well): 36H | Diameter of zone of inhibition (P. aeruginosa 2301 [3]; Table 6, +Ceftazidime (0.5 μg/ml), 200 μg/Well): 42H | Diameter of zone of inhibition (P. aeruginosa 2301 [3]; Table 6, Control, 50 μg/Well): 12H | Diameter of zone of inhibition (P. aeruginosa 2301 [3]; Table 6, Control, 100 μg/Well): 20H | Diameter of zone of inhibition (P. aeruginosa 2301 [3]; Table 6, Control, 200 μg/Well): 24H

CO/N=C(\C(=O)N[C@@H]1C(=O)N2C(C(=O)[O-])=C(C[N+]3(C)CCCC3)CS[C@H]12)c1csc(N)n1 [Cefepime, cefepime]
inhibition of MDR RND efflux pumps, concluded from potentiation (P. aeruginosa 23587): inhibit RND pumps

CC[n+]1c(-c2ccccc2)c2cc(N)ccc2c2ccc(N)cc21 [Ethidium Bromide, ethidium bromide]
Diameter of zone of inhibition (P. aeruginosa 23587; [5]): 10H | Diameter of zone of inhibition (P. aeruginosa 23587; [6]): 13H | Diameter of zone of inhibition (P. aeruginosa 23587; [7]): 16H

NC(N)=NCCCC(NC(=O)[C@@H](N)Cc1ccccc1)C(=O)Nc1ccc2ccccc2c1 (stereo partly drawn) [PAN, Phe-Arg-beta-naphthylamide] (HELM PEPTIDE1{F.[N=C(N)NCCCC(N[*:1])C(=O)[*:2]].[c1ccc2cc(N[*:1])ccc2c1]}$$$$V2.0)
inhibition of MDR RND efflux pumps, concluded from potentiation (P. aeruginosa 23587): efflux inhibition

CN(C)c1cc(NC(=O)CNC(C)(C)C)c(O)c2c1C[C@H]1C[C@H]3[C@H](N(C)C)C(O)=C(C(N)=O)C(=O)[C@@]3(O)C(O)=C1C2=O [Tigecycline, tigecycline]
CFU/ml at 48 h (P. aeruginosa 2301 [2]): >5 × 10^9 CFU/ml

CC(=O)NC[C@H]1CN(c2ccc(N3CCOCC3)c(F)c2)C(=O)O1 [linezolid]
change of activity in the presence of PAN (P. aeruginosa 23587): Synergistic enhancement

COC(=O)[C@H]1[C@H]2C[C@@H]3c4[nH]c5cc(OC)ccc5c4CCN3C[C@H]2C[C@@H](OC(=O)c2cc(OC)c(OC)c(OC)c2)[C@@H]1OC [reserpine]
inhibition of MDR RND efflux pumps, concluded from potentiation (P. aeruginosa 23587): non inhibition

colistin
Diameter of zone of inhibition (P. aeruginosa 23587): 12.5 m.m. and 14 m.m. and 16.5 m.m. and 11.5 m.m. and 16 m.m. | Diameter of zone of inhibition (P. aeruginosa 23587; [4]): 16.5 m.m. | Diameter of zone of inhibition (P. aeruginosa 23587; Table 2, P. aeruginosa (23587), +Reserpine (25 μg/ml), 12.5 μg/well): 16 m.m. | Diameter of zone of inhibition (P. aeruginosa 23587; Table 2, P. aeruginosa (23587), +sodium azide (10 μg/ml), 12.5 μg/well): 16 m.m. | Diameter of zone of inhibition (P. aeruginosa 23587; Table 3, P. aeruginosa 23587, +Cefepime (1 μg/ml), 12.5 μg/Well): 16 m.m. | Diameter of zone of inhibition (P. aeruginosa 23587; Table 3, P. aeruginosa 23587, +Ceftazidime (1 μg/ml), 12.5 μg/Well): 16 m.m. | change of activity in the presence of PAN (P. aeruginosa 23587): no change | Diameter of zone of inhibition (P. aeruginosa 2301 [3]; [8]): 16 m.m. | Diameter of zone of inhibition (P. aeruginosa 2301 [3]; Table 6, +Cefepime (2 μg/ml), 12.5 μg/Well): 16 m.m. | Diameter of zone of inhibition (P. aeruginosa 2301 [3]; Table 6, +Ceftazidime (0.5 μg/ml), 12.5 μg/Well): 16 m.m.
